How the values were obtained:
AcUGT92G7 = system: T1, AcUGT92G7; assay: HPLC glucosyltransferase kinetics; type: biochemical, Aesculus chinensis; settings: 1 mM UDP-glucose, Tris-HCl pH 7.0, 37 °C, 0-400 μM acceptor
T1 construct: gene UGT92G7; full-length, MBP or His fusion (pMAL-c2x or pET28a), E. coli, purified

AcUGT84A56 = system: T2, AcUGT84A56; assay: HPLC glucosyltransferase kinetics; type: biochemical, Aesculus chinensis; settings: 1 mM UDP-glucose, Tris-HCl pH 7.0, 37 °C, 0-400 μM acceptor
T2 construct: gene UGT84A56; full-length, MBP or His fusion (pMAL-c2x or pET28a), E. coli, purified

O=c1ccc2cc(O)c(O)cc2o1 [compound 4, esculetin]
Km (AcUGT92G7): 49 µM
Km (AcUGT84A56): 177 µM
